Reference: US4062973A, “Sulfur-containing derivatives of cyclohexylphenyl-ethane” (Boehringer Ingelheim GmbH, priority 1975, dated 1977)
Read-outs that look alike come from different tables or passages of the source.

Tests used:
white mice = assay: Acute toxicity in white mice after oral application of a single dose; assay type: in vivo; details: 1000 mgm/kg, observation time 14 days
Description: (§1) The acute toxicity of the compounds was determined in white mice (observation time: 14 days) after oral application of a single dose: […]

[1] = as above; assay type: in vivo; details: mouse, in vivo, observation time 14 days
Description: as §1

mice = assay: Determination of the prolongation of the bleeding time; assay type: in vivo; details: 10 mgm/kg orally, awake mice, compared with untreated control group
Description: 2. determination of the prolongation of the bleeding time:
To determine the effect on the bleeding time, 10 mgm/kg of the test compound were administered orally to awake, unanesthetized mice. After 1 hour, and again after 3 hours, about 0.5 mm from the end of the tail of each animal was cut off, and the exuded blood was carefully soaked up into filter paper every 30 seconds. The number of drops of blood so obtained provided a measure for the bleeding time (5 animals/experiment).
The numbers in Table II represent the prolongation in %, compared with an untreated control group: […]

[2] = tested on: platelet-rich plasma of healthy human donors; assay: Determination of platelet aggregation by the method of Born and Cross (collagen-induced, platelet-rich plasma); assay type: cell-based; details: 10^-4 mol/lit., compared with control batch without test compound; for inhibition at 100 µM: Homo sapiens, Platelet
Description: 1. Determination of platelet aggregation by the method of Born and Cross (see J. Physiol. 170, 397 (1964)):
The platelet aggregation was measured in the platelet-rich plasma of healthy human donors. The alterations of the optical density of the platelet suspension was measured and recorded photometrically after the addition of commercial collagen manufactured by Hormonchemie, Munich, Germany, containing 1 mgm of collagen fibrils per ml. From the angle of inclination of the density curve, the rate of aggregation was estimated (Vmax). The optical density (O.D.) was taken at the point on the curve where the most light was transmitted. Small doses of collagen were chosen, but sufficient to give irreversible aggregation. To provoke maximum aggregation, about 0.01 ml of the collagen solution was added to 1 ml of platelet-rich plasma.
The numbers in Table I represent the % reduction in the aggregation rate (Vmax) and the % change in optical density (O.D.), compared with a control batch without addition of a test compound.

[3] = read-out: % Reduction (change) in optical density (O.D.)
[4] = read-out: % Reduction in the aggregation rate (Vmax)

| SMILES | Acute toxicity: animals died (white mice) | LD50 at 336 h [1] [mg/kg] | Prolongation of the bleeding time in % after 1 hour (mice) [%] | Prolongation of the bleeding time in % after 3 hours (mice) [%] | inhibition at 100 µM [2, 3] [%] | inhibition at 100 µM [2, 4] [%] | % Reduction (change) in optical density (O.D.) ([2]; 100 µM) [%] | % Reduction in the aggregation rate (Vmax) ([2]; 100 µM) [%] |
| --- | --- | --- | --- | --- | --- | --- | --- | --- |
| COC(=O)C[S+]([O-])C(C)c1ccc(C2CCCCC2)cc1 (stereo not drawn) [B, methyl [1-(4'-cyclohexyl-phenyl)-ethylsulfinyl]-acetate] | 0 out of 10 | > 1000 | 117 | 51 |  |  |  |  |
| COC(=O)C[S+]([O-])C(C)c1ccc(C2CCCCC2)c(Cl)c1 (stereo not drawn) [C, methyl [1-(3'-chloro-4'-cyclohexyl-phenyl)-ethylsulfinyl]-acetate] |  |  |  |  | 89 | 85 |  |  |
| CC(c1ccc(C2CCCCC2)cc1)[S+]([O-])CC(=O)O (stereo not drawn) [Compound A, [1-(4'-cyclohexyl-phenyl)-ethylsulfinyl]-acetic acid] | 0 out of 10 | > 1000 | 300 | 122 |  |  |  |  |
| CCOC(=O)C[S+]([O-])C(C)c1ccc(C2CCCCC2)c(Cl)c1 (stereo not drawn) [D, Ethyl [1-(3'-chloro-4'-cyclohexyl-phenyl)-ethylsulfinyl]-acetate] |  |  | 49 |  |  |  | 89 | 87 |
| CC(c1ccc(C2CCCCC2)c(Cl)c1)[S+]([O-])CC(=O)N1CCCCC1 (stereo not drawn) [E, [1-(3'-chloro-4'-cyclohexyl-phenyl)-ethylsulfinyl]-acetic acid piperidide] | 0 out of 10 | > 1000 | 37 |  | 92 | 90 |  |  |
